This is an account of results in patent publication US11793841B2, “Microbial compositions and methods for treating type 2 diabetes, obesity, and metabolic syndrome” (Solarea Bio, Inc., priority 2017, dated 2023).

This assay deals with diet induced obese (DIO) C57BL/6J mice. As to the kind of experiment: Oral glucose tolerance test (OGTT) in diet induced obese mice. The format is in vivo. Particulars: monotherapy; by 60 minutes. On the procedure:
After 4 weeks of dosing mice with test article, an OGTT was performed. Here, mice were fasted for 6 hours after which fasting blood glucose levels were measured via tail vein blood using a glucometer (One-Touch Ultra II). Mice were then dosed with an oral glucose bolus (2 g/kg) via oral gavage, and blood glucose was measured at 20, 40, 60, and 120 minutes post gavage.

As to `CN(C)C(=N)N=C(N)N` [metformin], the “blood glucose after glucose challenge” value was “remained elevated”.
